System: spontaneously developed mammary gland tumors (adenocarcinoma and adenoma)
Assay: Therapeutic effect on tumor-bearing rats; light and electron microscopy of removed tumor tissues
Assay type: in vivo, Sprague-Dawley rats
Conditions: for apoptosis of smooth muscle cells in the tumor site: electron micrographs FIGS. 12 to 15; for degeneration of axons of peripheral nerve cells in the tumor site / degeneration of myelin sheaths of peripheral nerve cells in the tumor site: electron micrographs FIGS. 16 to 19; for stage of apoptosis of endothelial cells (irregular condensation and fragmentation of nuclei): staging per Ihara et al. 1998; for apoptosis in the tumor cells / inhibitory effect on the development and the growth of the tumor cells: tumor-bearing rats, oral daily (montelukast sodium 0.16, zafirlukast 1.33, pranlukast hydrate 7.5, zileuton 34.3 mg/kg), vs untreated
From the text: Sprague-Dawley rats which had spontaneously developed a tumor during breeding (hereinafter referred to as tumor-bearing rats) were purchased from Charles River Japan, Inc., and used for experiments. Tumors observed were all mammary gland tumors (adenocarcinoma and adenoma). All of these were spontaneous tumors, and the rats were cancer-bearing animals having various conditions of tumorigenesis including carcinogenic factors in mammals including human.
Under ether anesthetization, tumor tissues were removed from tumor-bearing rats. The removed tumors were fixed, and thereafter samples for light microscopy (hematoxylin-eosin staining) and samples for electron microscopy (uranium-lead double staining) were prepared and observed.
To tumor-bearing rats, a leukotriene inhibitor containing montelukast sodium as an active ingredient (leukotriene receptor antagonist; trade name “Singulair Tablets”; manufactured by MSD K. K.) was orally administered for up to 7 days at a daily dose of 0.16 mg/kg body weight in terms of montelukast sodium. On Day 3 and Day 7, tumor tissues were removed under ether anesthetization. In the same manner as in Comparative Example 1, the removed tumors were fixed, and thereafter samples for light microscopy (hematoxylin-eosin staining) and samples for electron microscopy (uranium-lead double staining) were prepared and observed.
To tumor-bearing rats, a leukotriene inhibitor containing zafirlukast as an active ingredient (leukotriene receptor antagonist; trade name “Accolate”; manufactured by AstraZeneca K. K.) was orally administered for up to 7 days at a daily dose of 1.33 mg/kg body weight in terms of zafirlukast. On Day 3 and Day 7, tumor tissues were removed under ether anesthetization. In the same manner as in Comparative Example 1, the removed tumors were fixed, and thereafter samples for light microscopy (hematoxylin-eosin staining) and samples for electron microscopy (uranium-lead double staining) were prepared and observed.
To tumor-bearing rats, a leukotriene inhibitor containing pranlukast hydrate as an active ingredient (leukotriene receptor antagonist; trade name “Onon”; manufactured by Ono Pharmaceutical Co., Ltd.) was orally administered for up to 7 days at a daily dose of 7.5 mg/kg body weight in terms of pranlukast hydrate. On Day 3 and Day 7, tumor tissues were removed under ether anesthetization. In the same manner as in Comparative Example 1, the removed tumors were fixed, and thereafter samples for light microscopy (hematoxylin-eosin staining) and samples for electron microscopy (uranium-lead double staining) were prepared and observed.
To tumor-bearing rats, a leukotriene inhibitor containing zileuton as an active ingredient (leukotriene biosynthesis inhibitor; trade name “ZYFLO”; manufactured by Abbott Laboratories) was orally administered for up to 7 days at a daily dose of 34.3 mg/kg body weight in terms of zileuton. On Day 3 and Day 7, tumor tissues were removed under ether anesthetization. In the same manner as in Comparative Example 1, the removed tumors were fixed, and thereafter samples for light microscopy (hematoxylin-eosin staining) and samples for electron microscopy (uranium-lead double staining) were prepared and observed.

[1] = oral, dosing period 3 days, electron micrographs

Compound | apoptosis of fibroblasts in tumor tissue [1] | apoptosis of smooth muscle cells in the tumor site (oral, dosing period 3 days) | degeneration of axons of peripheral nerve cells in the tumor site (oral, dosing period 3 days) | degeneration of myelin sheaths of peripheral nerve cells in the tumor site (oral, dosing period 3 days) | stage of apoptosis of endothelial cells (irregular condensation and fragmentation of nuclei) [1] | apoptosis in the tumor cells | inhibitory effect on the development and the growth of the tumor cells | effect to inhibit stromal hyperplasia (oral, dosing period 3 days)
COc1cc(C(=O)NS(=O)(=O)c2ccccc2C)ccc1Cc1cn(C)c2ccc(NC(=O)OC3CCCC3)cc12 [zafirlukast] | apoptosis of fibroblast | apoptosis of a smooth muscle cell | vacuolation and degeneration of an axon | degeneration of a myelin sheath | Stage II to III | apoptosis was already induced on as early as Day 3 | remarkable inhibitory effect | 
CC(c1cc2ccccc2s1)N(O)C(N)=O (centres unmarked) [zileuton] |  | apoptosis of a smooth muscle cell | vacuolation and degeneration of an axon | degeneration of a myelin sheath | Stage II to III | apoptosis was already induced on as early as Day 3 | remarkable inhibitory effect | an effect to inhibit stromal hyperplasia was also seen

— patent publication US20190070163A1, “ANTITUMOR AGENT” (TOCHIGI INSTITUTE OF CLINICAL PATHOLOGY, priority 2013, published 2019)
